For one experiment, the system named is A549 xenograft. Kind of experiment: Tumour growth inhibition in A549 xenograft model. In kind it is in vivo, mice. The settings on record: selumetinib 25 mg/kg BiD or Example 18a 25 mg/kg QD, peroral, continuously for 3 weeks, relative to vehicle. As for the experimental part:
A549 is a human non small cell lung cancer line carrying an oncogenic mutation in the KRAS gene (G12S). Female nude mice (Harlan, UK) were implanted subcutaneously (s.c.) on the left flank, with 5×10^6 A549 cells (ATCC) per mouse.
Tumour growth was monitored by twice weekly calliper measurement and volumes calculated using elliptical formula (pi/6×width×width×length). Once tumours had reached a volume of ˜200-300 mm^3 animals were randomised into groups of 7-11 and were treated with a continuous combination schedule of selumetinib (ARRY-142886) 25 mg/kg BiD and Example 18a 25 mg/kg QD (four hours after first selumetinib dose), both were dosed by peroral route. Tumour volumes were measured twice weekly after dosing commenced.
Selumetinib was formulated in HPMC/Tween (0.5% Methocel [hydroxypropyl methocellulose]/0.1% Polysorbate 80), the suspension was stirred over night. Example 18a was formulated in 10% DMSO, 90% of a 40% kleptose solution (Kleptose is sourced from Roquette—Pharma [Trademarked] Hydroxypropyl betacyclodextrin—suitable for in-vivo use and formulations).
Studies were performed in the A549 xenograft model. Selumetinib was dosed twice daily (BiD) 8 hours apart and Example 18a was dosed once daily (QD) 4 hours after the first selumetinib dose. Both compounds were dosed continuously for 3 weeks. Both vehicles were dosed in the vehicle group.

In experiment [1] the test system is phospho-p90RSK in A375 cell line. Kind of experiment: A375 Phospho-p90RSK Cellular Assay. The settings on record: A375 cells, 2 hours incubation. In kind it is cell-based, human. As for the experimental part:
(§1) All compounds or DMSO (dimethyl sulphoxide) for the ERK2 Mass Spectrometry and A375 phospho-p90RSK assays were dispensed from source plates containing compounds at 10 mM in 100% (v/v) DMSO or 100% DMSO, directly into assay plates using an Echo 555 Acoustic dispenser (Labcyte Inc™). Depending on the assay, two separate plate preparations were followed. In Workflow A, 10 mM compound stocks were diluted 1:100 using a fixed-tip 96-head Agilent VPrep liquid handler (Agilent Technologies, Santa Clara, Calif.) to give four intermediate dilutions (10 mM, 100 μM, 1 μM, 10 nM). In Workflow B, 10 mM compound stocks were diluted 1:10 using a Tecan Freedom Evo (Tecan Group Ltd., Switzerland), and then 1:100 using the Echo 555 and Labcyte LX to produce three intermediate dilutions across three Labcyte qualified source plates (1 mM, 10 μM, 100 nM). These intermediate dilution plates were then used by the Echo 555 to generate final assay-ready compound plates with a 12 point dose range (10, 3, 1, 0.25, 0.1, 0.03, 0.01, 0.0025, 0.001, 0.0003, 0.0001, 0.0000125 μM) in order to calculate compound IC50s, with a total DMSO concentration in the assay of 1%. For the ERK2 Mass Spectrometry assay Workflow B was used. For the A375 phospho-p90RSK cell assay, the intermediate 1:100 dilution plate described in Workflow A was used by the Echo to dispense compounds and DMSO directly into the cell plates with a 12 point dose range (30, 10, 3.125, 1.25, 0.3, 0.1, 0.03125, 0.0125, 0.003, 0.001, 0.0003125, 0.00003 μM) in order to calculate compound IC50's, with a total DMSO concentration in the assay of 0.3%.
A375 Phospho-p90RSK Cellular Assay
A375 cells were cultured in cell media composed of DMEM (Dulbecco's modified Eagle's medium), 10% (v/v) Foetal Calf Serum and 1% (v/v) L-Glutamine. After harvesting, cells were dispensed into black, 384-well Costar plates (#3712, Corning) to give 2400 cells per well in a total volume of 40 μl cell media, and were incubated overnight at 37° C., 90% relative humidity and 5% CO2 in a rotating incubator. Test compounds and reference controls were dosed directly into the cell plates using a Labcyte Echo 555 acoustic dispenser. The cell plates were then incubated for 2 hours at 37° C. before being fixed by the addition of 20 μl 12% formaldehyde in PBS/A (4% final concentration), followed by a 20 minute room temperature incubation, and then a 2× wash with 150 μl PBS/A (phosphate buffered saline containing albumin) using a BioTek ELx405 platewasher. Cells were permeabilised with 20 μl 0.1% Triton X-100 in PBS/A for 20 minutes at room temperature, and then washed 1× with 100 μl PBS/A. Primary phospho-p90RSK (Thr359) (D1E9) rabbit monoclonal antibody (#8753, Cell Signaling Technology) was diluted 1:1000 in assay buffer (0.05% (v/v) Tween, 5% (v/v) Foetal Calf Serum, in PBS/A), 20 μl added per well, and plates were incubated at 4° C. overnight. Cell plates were washed 2× with 200 μl PBS/T (phosphate buffered saline containing Tween-20), then 20 μl 1:500 dilution in assay buffer of Alexa Fluor® 647 goat anti-rabbit IgG secondary antibody (#A31573, Molecular Probes, Life Technologies), with a 1:5000 dilution of Hoechst 33342, was added per well. Following a 90 minute incubation at room temperature, plates were washed 2× with 200 μl PBS/T, and 40 μl PBS/A was added per well. Stained cell plates were covered with black lid seals, and then read on a Cellomics ArrayScan™ VTI imaging platform (Thermo Scientific), using an XF53 filter with 10× objective, with a LED light source set-up to analyse nuclear staining with Hoechst 33342 (405 nm) and secondary antibody staining of phospho-p90RSK (647 nm). Data was analysed and IC50's were calculated using Genedata Screener® software.

The target of another experiment is T1, ERK2 (Homo sapiens, UniProt P28482).
T1 construct: made in house
T1 sequence (P28482 whole entry): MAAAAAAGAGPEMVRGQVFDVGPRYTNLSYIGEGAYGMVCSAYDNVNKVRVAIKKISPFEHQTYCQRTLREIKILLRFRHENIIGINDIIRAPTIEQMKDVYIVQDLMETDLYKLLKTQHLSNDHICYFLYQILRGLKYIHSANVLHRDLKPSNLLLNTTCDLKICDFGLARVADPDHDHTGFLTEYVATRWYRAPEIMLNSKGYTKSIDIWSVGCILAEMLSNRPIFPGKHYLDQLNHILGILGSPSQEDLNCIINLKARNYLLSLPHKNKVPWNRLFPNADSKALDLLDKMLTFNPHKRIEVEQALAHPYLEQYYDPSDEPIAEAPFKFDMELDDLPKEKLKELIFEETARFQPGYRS
The experiment is described as follows: ERK2 Rapidfire Mass Spectrometry Inhibition of Catalysis Assay. In kind it is biochemical. The following applies: 1.2 nM ERK2, 16 μM Erktide, 120 μM ATP (measured Km), 15 minute pre-incubation; read-out: ERK2 Mass Spectrometry Enzyme IC50. On the procedure:
as §1
ERK2 Rapidfire Mass Spectrometry Inhibition of Catalysis Assay
MEK U911-activated ERK2 protein was expressed and purified in-house. Enzyme and substrate solutions were made up in assay buffer consisting of 50 mM Tris (pH 7.5), 10 mM MgCl2, 0.1 mM EGTA (ethylene glycol tetraacetic acid), 10 mM DTT (dithiothreitol) and 0.01% (v/v) CHAPS (3-[(3-Cholamidopropyl)dimethylammonio]-1-propanesulfonate). 1.2 nM ERK2 protein was prepared in assay buffer and 10 μl was dispensed into each well of a polypropylene, 384-well plate (#781201, Greiner) containing test and reference control compounds. […] The reaction was allowed to progress for 20 minutes at room temperature before being quenched by the addition of 80 al 1% (v/v) formic acid. The assay plates were then run on the RapidFire Mass Spectrometry platform (Agilent) to measure substrate (unphosphorylated Erktide) and product (phosphorylated Erktide) levels. Data was analysed and IC50's (half maximal inhibitory concentration) were calculated using Genedata Screener® software.

As to `COC[C@H]1Cn2cc(-c3nc(Nc4ccnn4C)ncc3C)nc2C(=O)N1Cc1ccc(F)c(F)c1` [Example 18a, (R)-7-(3,4-Difluorobenzyl)-6-(methoxymethyl)-2-(5-methyl-2-((1-methyl-1H-pyrazol-5-yl)amino)pyrimidin-4-yl)-6,7-dihydroimidazo[1,2-a]pyrazin-8(5H)-one Ethanesulfonic acid adduct Form 1], the “tumour growth, single agent” value in the experiment on A549 xenograft is reported as “reduced tumour growth relative to vehicle only control”. Besides, the IC50 in experiment [1] is 7.4 nM; on ERK2 it was 0.6 nM.
With `Cc1cnc(Nc2ccnn2C)nc1-c1cn2c(n1)C(=O)N(Cc1cccc(Cl)c1)CC2` [Example 13, 7-(3-Chlorobenzyl)-2-(5-methyl-2-((1-methyl-1H-pyrazol-5-yl)amino)pyrimidin-4-yl)-6,7-dihydroimidazo[1,2-a]pyrazin-8(5H)-one], the IC50 stood at 12 nM in experiment [1] (Homo sapiens, A-375, 2 h) and 0.3 nM on ERK2.
In the case of `Cc1cnc(Nc2ccnn2C)nc1-c1cn2c(n1)C(=O)N(Cc1cccc(C(F)(F)F)n1)[C@H](C)C2` [Example 36, (R)-6-Methyl-2-(5-methyl-2-((1-methyl-1H-pyrazol-5-yl)amino)pyrimidin-4-yl)-7-((6-(trifluoromethyl)pyridin-2-yl)methyl)-6,7-dihydroimidazo[1,2-a]pyrazin-8(5H)-one], the IC50 in experiment [1] (Homo sapiens, A-375) came to 51 nM; on ERK2, 1.4 nM.
Taken in the same sequence, the figures for `Cc1cnc(Nc2ccnn2C)nc1-c1cn2c(n1)C(=O)N(Cc1cccc(C(F)(F)F)n1)CC2` [Example 5, 2-(5-Methyl-2-((1-methyl-1H-pyrazol-5-yl)amino)pyrimidin-4-yl)-7-((6-(trifluoromethyl)pyridin-2-yl)methyl)-6,7-dihydroimidazo[1,2-a]pyrazin-8(5H)-one] were 110 nM and 2 nM.
Taken in the same sequence, the figures for `Cc1cnc(Nc2ccnn2C)nc1-c1cn2c(n1)C(=O)N(Cc1cc(C(F)F)ccn1)[C@@H](C)C2` [Example 31, (S)-7-((4-(Difluoromethyl)pyridin-2-yl)methyl)-6-methyl-2-(5-methyl-2-((1-methyl-1H-pyrazol-5-yl)amino)pyrimidin-4-yl)-6,7-dihydroimidazo[1,2-a]pyrazin-8(5H)-one] were 140 nM and 0.8 nM.
The matching figures for `COC[C@H]1Cn2cc(-c3nc(Nc4ccnn4C)ncc3C)nc2C(=O)N1Cc1cccc(C(F)F)c1` [Example 38, (R)-7-(3-(Difluoromethyl)benzyl)-6-(methoxymethyl)-2-(5-methyl-2-((1-methyl-1H-pyrazol-5-yl)amino)pyrimidin-4-yl)-6,7-dihydroimidazo[1,2-a]pyrazin-8(5H)-one]: 8 nM and 0.7 nM.
Consider `Cc1cnc(Nc2ccnn2C)nc1-c1cn2c(n1)C(=O)N(Cc1ccc(F)c(F)c1)[C@@H](C)C2` [Example 20, (S)-7-(3,4-Difluorobenzyl)-6-methyl-2-(5-methyl-2-((1-methyl-1H-pyrazol-5-yl)amino)pyrimidin-4-yl)-6,7-dihydroimidazo[1,2-a]pyrazin-8(5H)-one], for which the IC50 is 38 nM in experiment [1] (Homo sapiens, A-375, 2 h) and 0.4 nM on ERK2.
Take `C[C@H]1Cn2cc(-c3nc(Nc4ccnn4C)ncc3Cl)nc2C(=O)N1Cc1cccc(C(F)(F)F)n1` [Example 10]: the half-inhibitory concentration (IC50) in experiment [1] (Homo sapiens, A-375) turned out to be 55 nM; at ERK2 it was 1.1 nM.
The matching figures for `Cc1cccc(CN2C(=O)c3nc(-c4nc(Nc5ccnn5C)ncc4Cl)cn3C[C@@H]2C)n1` [Example 11, (S)-2-(5-chloro-2-((1-methyl-1H-pyrazol-5-yl)amino)pyrimidin-4-yl)-6-methyl-7-((6-methylpyridin-2-yl)methyl)-6,7-dihydroimidazo[1,2-a]pyrazin-8(5H)-one]: 150 nM and 0.8 nM.

For the origin of these results see patent publication US10202391B2, “Chemical compounds” (AstraZeneca AB, priority 2015, dated 2019).
